# Assay results: publication PMC12320245 (International Journal of Biological Sciences, 2025)
# What was measured:
# [1] = test system: PKA; assay: PKA colorimetric activity assay (test tubes); format: biochemical; conditions: 0.1-10 µM
# Method: PKA activity was assessed using a microplate-based kinase activity assay. Each well contained reaction buffer, a purified PKA enzyme, and test samples, followed by adding 10 μL of adenosine triphosphate (ATP) solution to initiate the reaction. Plates were incubated at 30°C for 90 minutes, before being washed four times with wash buffer to remove unbound components. Next, 25 μL each of phospho-PKA substrate antibody and horseradish peroxidase (HRP)-conjugated secondary antibody (donkey anti-rabbit IgG) were added to each well. The plates were incubated at room temperature (RT) for 60 minutes under continuous shaking to ensure uniform binding. To detect the phosphorylated substrate, 100 μL of tetramethylbenzidine (TMB) substrate was added to each well, followed by a 30-minute incubation at RT. The reaction was terminated by adding stop solution, and the absorbance was measured at 450 nm by using a microplate reader to quantify PKA activity.
# [2] = test system: primary hippocampal neurons; assay: Scratch injury: cell viability analysis; format: cell-based, rat; conditions: scratched neurons, 24 hours post-scratch, 10 μM AMX
# Method: Primary hippocampal neurons were obtained from embryonic day 18 (E18) Sprague-Dawley rat embryos. Pregnant rats were anesthetized using 2-3% isoflurane in a gas mixture of 70% nitrous oxide and 30% oxygen. Following euthanasia, the hippocampi were carefully dissected, minced, and enzymatically dissociated using TrypLE Express (Gibco, NY, USA) for 10 minutes at 37°C. The tissue was further mechanically dissociated using fire-polished glass pipettes, and the resulting cell suspension was filtered through a 70 μm cell strainer to remove debris. Neurons were seeded at a density of 3 × 10^5 cells per well in 24-well plates pre-coated with poly-L-lysine (Sigma-Aldrich, Saint Louis, MO, USA). Cells were maintained in neurobasal medium supplemented with B-27 (Thermo Fisher Scientific, Waltham, MA, USA), GlutaMAX (Gibco), and penicillin-streptomycin. The cultures were incubated at 37.5°C in a humidified atmosphere containing 5% CO₂. […]
# (§1) A scratch injury model was used to mimic TBI in vitro. […] After the treatment period, neuronal damage and recovery were assessed using appropriate evaluation methods.
# […] After incubation, absorbance was measured at 450 nm using a microplate reader (Spectramax, Molecular Devices Co., CA, USA). […]
# [3] = test system: primary hippocampal neurons; assay: Scratch injury: cAMP ELISA; format: cell-based, rat; conditions: 10 μM AMX immediately after scratch, 6 hours post-injury
# Method: Primary hippocampal neurons were obtained from embryonic day 18 (E18) Sprague-Dawley rat embryos. Pregnant rats were anesthetized using 2-3% isoflurane in a gas mixture of 70% nitrous oxide and 30% oxygen. Following euthanasia, the hippocampi were carefully dissected, minced, and enzymatically dissociated using TrypLE Express (Gibco, NY, USA) for 10 minutes at 37°C. The tissue was further mechanically dissociated using fire-polished glass pipettes, and the resulting cell suspension was filtered through a 70 μm cell strainer to remove debris. Neurons were seeded at a density of 3 × 10^5 cells per well in 24-well plates pre-coated with poly-L-lysine (Sigma-Aldrich, Saint Louis, MO, USA). Cells were maintained in neurobasal medium supplemented with B-27 (Thermo Fisher Scientific, Waltham, MA, USA), GlutaMAX (Gibco), and penicillin-streptomycin. The cultures were incubated at 37.5°C in a humidified atmosphere containing 5% CO₂. After seven days of growth, neurons were fixed with 4% paraformaldehyde (PFA) for 15 minutes at room temperature and subsequently stored at 4°C until their further use for immunostaining. A scratch injury model was used to mimic TBI in vitro. […] After the treatment period, neuronal damage and recovery were assessed using appropriate evaluation methods. […]
# [4] = test system: primary hippocampal neurons; assay: Scratch injury: lysosomal zinc (FluoZin-3 / LysoTracker); format: cell-based, rat; conditions: scratched neurons, 24 hours after scratch
# Method: Primary hippocampal neurons were obtained from embryonic day 18 (E18) Sprague-Dawley rat embryos. Pregnant rats were anesthetized using 2-3% isoflurane in a gas mixture of 70% nitrous oxide and 30% oxygen. Following euthanasia, the hippocampi were carefully dissected, minced, and enzymatically dissociated using TrypLE Express (Gibco, NY, USA) for 10 minutes at 37°C. The tissue was further mechanically dissociated using fire-polished glass pipettes, and the resulting cell suspension was filtered through a 70 μm cell strainer to remove debris. Neurons were seeded at a density of 3 × 10^5 cells per well in 24-well plates pre-coated with poly-L-lysine (Sigma-Aldrich, Saint Louis, MO, USA). Cells were maintained in neurobasal medium supplemented with B-27 (Thermo Fisher Scientific, Waltham, MA, USA), GlutaMAX (Gibco), and penicillin-streptomycin. The cultures were incubated at 37.5°C in a humidified atmosphere containing 5% CO₂. After seven days of growth, neurons were fixed with 4% paraformaldehyde (PFA) for 15 minutes at room temperature and subsequently stored at 4°C until their further use for immunostaining.
# as §1
# [5] = test system: cultured cortical astrocytes; assay: Intracellular cAMP levels in cultured astrocytes; format: cell-based; conditions: 1-hour treatment, 0.1 to 10 µM, particularly at 1 μM and 10 μM
# [6] = test system: hippocampus of TBI rats; assay: Controlled cortical impact TBI: hippocampal cAMP ELISA; format: in vivo; conditions: rat, 3 hours post-TBI, AMX 100 mg/kg i.p.
# Method: This study used male Sprague-Dawley rats weighing 300-350 g and aged 8 weeks, obtained from DBL Co. (Chungcheongbuk-do, Republic of Korea). The rats were housed in a controlled environment with a temperature of 20 ± 2 °C, a relative humidity of 55 ± 5%, and a 12-hour light/dark cycle. They were provided ad libitum access to food and water. To minimize stress associated with transportation, animals underwent a one-week acclimatization period before the start of the experiments. All experimental procedures were conducted in compliance with the guidelines of the National Institutes of Health for the care and use of laboratory animals and were approved by the Hallym University Institutional Animal Care and Use Committee (protocol # Hallym 2022-23, approved on July 15, 2022). This manuscript follows the principles outlined in the Animal research: reporting in vivo experiments (ARRIVE) guidelines.
# A controlled cortical impact (CCI) model was used to induce TBI in rats. Animals were anesthetized with 1-1.5% isoflurane in a 30:70 oxygen-to-nitrous oxide mixture and securely positioned in a stereotaxic frame. A 3 mm craniotomy was performed using a portable drill at a site 2.8 mm lateral to the midline and 3.0 mm posterior to Bregma. […]
compound,measurement,setting,value
"CC(C)c1ccc2oc3nc(N)c(C(=O)O)cc3c(=O)c2c1 [AMX, amlexanox]",PKA activity in test tubes,[1],activates PKA
same,cell viability,[2],substantially improved cell viability
same,cAMP levels after scratch injury (ELISA),[3],restored cAMP and p-PKA levels
same,lysosomal zinc levels (FluoZin-3 / LysoTracker),[4],restored lysosomal zinc levels to near-normal levels
same,intracellular cAMP levels,[5],significantly increased intracellular cAMP levels
same,hippocampal cAMP levels (ELISA),[6],restored cAMP levels to values comparable to sham controls
